Results reported in the NIST ThermoML archive (doi:10.1021/je600557n).

Tests used:
[1] = molar heat capacity at constant pressure; xn = mol fraction of the nth substance listed; settings: 101 kPa, Liquid, Small sample (50 mg) DSC
[2] = xn = mol fraction of the nth substance listed; settings: 101 kPa, Liquid
[3] = refractive index (Na D-line) (dimensionless); xn = mol fraction of the nth substance listed; settings: 101 kPa, Liquid, Standard Abbe refractometry

C1CCOCC1 [tetrahydropyran] + C[S+](C)[O-]
Settings | mass density, [2] [kg/m3] | molar heat capacity at constant pressure, [1] [J/K/mol] | refractive index, [3] | viscosity, [2] [mPa·s]
293.15 K, x2 = 0.073 | 895.7 | – | 1.4268 | 0.906
293.15 K, x2 = 0.0996 | – | 148.8 | – | –
293.15 K, x2 = 0.1171 | 903.11 | – | 1.4288 | 0.931
293.15 K, x2 = 0.1317 | – | 149.7 | – | –
293.15 K, x2 = 0.2176 | 920.63 | – | 1.4336 | 1.005
293.15 K, x2 = 0.2636 | – | 153 | – | –
293.15 K, x2 = 0.3108 | 937.76 | – | 1.4383 | 1.082
293.15 K, x2 = 0.3636 | – | 154.6 | – | –
293.15 K, x2 = 0.4069 | 956.42 | – | 1.4433 | 1.173
293.15 K, x2 = 0.4832 | – | 155.9 | – | –
293.15 K, x2 = 0.4982 | 975.18 | – | 1.4483 | 1.274
293.15 K, x2 = 0.5309 | – | 156 | – | –
293.15 K, x2 = 0.5763 | – | 155.8 | – | –
293.15 K, x2 = 0.5786 | 992.6 | – | 1.4528 | 1.377
293.15 K, x2 = 0.6227 | 1002.56 | – | 1.4554 | 1.433
293.15 K, x2 = 0.6527 | 1009.49 | – | 1.4573 | 1.476
293.15 K, x2 = 0.6773 | – | 155.5 | – | –
293.15 K, x2 = 0.7338 | 1028.89 | – | 1.4624 | 1.605
293.15 K, x2 = 0.7586 | – | 154.7 | – | –
293.15 K, x2 = 0.8085 | 1047.69 | – | 1.4673 | 1.75
293.15 K, x2 = 0.8412 | – | 153.7 | – | –
293.15 K, x2 = 0.9237 | – | 152 | – | –
293.15 K, x2 = 0.9321 | 1080.93 | – | 1.4761 | 2.022
293.15 K, x2 = 0.9579 | – | 151.4 | – | –
303.15 K, x2 = 0.0996 | – | 152.5 | – | –
303.15 K, x2 = 0.1175 | 893.4 | – | 1.4226 | 0.804
303.15 K, x2 = 0.1317 | – | 153.1 | – | –
303.15 K, x2 = 0.2209 | 911.49 | – | 1.4275 | 0.865
303.15 K, x2 = 0.2636 | – | 155 | – | –
303.15 K, x2 = 0.3113 | 928.13 | – | 1.4322 | 0.925
303.15 K, x2 = 0.3636 | – | 156.1 | – | –
303.15 K, x2 = 0.411 | 947.52 | – | 1.4375 | 1.001
303.15 K, x2 = 0.4832 | – | 156.6 | – | –
303.15 K, x2 = 0.4945 | 964.64 | – | 1.4422 | 1.078
303.15 K, x2 = 0.5309 | – | 156.8 | – | –
303.15 K, x2 = 0.5341 | 973.08 | – | 1.4444 | 1.112
303.15 K, x2 = 0.5763 | – | 156.5 | – | –
303.15 K, x2 = 0.5869 | 984.64 | – | 1.4477 | 1.168
303.15 K, x2 = 0.6597 | 1001.27 | – | 1.4522 | 1.25
303.15 K, x2 = 0.6773 | – | 156 | – | –
303.15 K, x2 = 0.7348 | 1019.24 | – | 1.4571 | 1.345
303.15 K, x2 = 0.7586 | – | 155.5 | – | –
303.15 K, x2 = 0.8105 | 1038.27 | – | 1.4621 | 1.453
303.15 K, x2 = 0.8412 | – | 154.6 | – | –
303.15 K, x2 = 0.876 | 1055.53 | – | 1.4666 | 1.563
303.15 K, x2 = 0.9237 | – | 153.2 | – | –
303.15 K, x2 = 0.9393 | 1072.96 | – | 1.471 | 1.679
303.15 K, x2 = 0.9579 | – | 152.9 | – | –
313.15 K, x2 = 0.07165 | 875.38 | – | 1.4152 | 0.681
313.15 K, x2 = 0.0996 | – | 157.1 | – | –
313.15 K, x2 = 0.1195 | 883.44 | – | 1.4173 | 0.701
313.15 K, x2 = 0.1317 | – | 157.7 | – | –
313.15 K, x2 = 0.2128 | 899.76 | – | 1.422 | 0.745
313.15 K, x2 = 0.2636 | – | 159.3 | – | –
313.15 K, x2 = 0.3143 | 918.44 | – | 1.4272 | 0.803
313.15 K, x2 = 0.3636 | – | 160 | – | –
313.15 K, x2 = 0.4102 | 937.09 | – | 1.4323 | 0.863
313.15 K, x2 = 0.4832 | – | 160.5 | – | –
313.15 K, x2 = 0.4969 | 954.93 | – | 1.4375 | 0.927
313.15 K, x2 = 0.5309 | – | 160.3 | – | –
313.15 K, x2 = 0.5311 | 962.23 | – | 1.4394 | 0.953
313.15 K, x2 = 0.5763 | – | 160.1 | – | –
313.15 K, x2 = 0.5865 | 974.36 | – | 1.4429 | 0.997
313.15 K, x2 = 0.6595 | 991.06 | – | 1.4474 | 1.063
313.15 K, x2 = 0.6773 | – | 159.3 | – | –
313.15 K, x2 = 0.7295 | 1007.8 | – | 1.452 | 1.136
313.15 K, x2 = 0.7586 | – | 158.5 | – | –
313.15 K, x2 = 0.8349 | 1034.54 | – | 1.4592 | 1.26
313.15 K, x2 = 0.8412 | – | 157.3 | – | –
313.15 K, x2 = 0.9237 | – | 155.8 | – | –
313.15 K, x2 = 0.938 | 1062.5 | – | 1.4663 | 1.405
313.15 K, x2 = 0.9579 | – | 155.1 | – | –
